Measurements reported in ChEMBL document CHEMBL5649166, “RIP3 induces apoptosis independent of pronecrotic kinase activity” (Mol Cell, 2014).

Legend:
[1] = biological target: Serine/threonine-protein kinase 33 (Homo sapiens) (UniProt Q9BYT3); experiment: Inhibition of human STK33 using myelin basic protein as substrate at 1 uM in presence of 32P-ATP by Hotspot assay relative to control; values are per cent of control
[2] = biological target: Serine/threonine-protein kinase pim-3 (Homo sapiens) (UniProt Q86V86); experiment: Inhibition of human PIM3 using RSRHSSYPAGT as substrate at 1 uM in presence of 32P-ATP by Hotspot assay relative to control; values are per cent of control
[3] = biological target: ALK tyrosine kinase receptor (Homo sapiens) (UniProt Q9UM73); experiment: Inhibition of human ALK using poly[Glu:Tyr] (4:1) as substrate at 1 uM in presence of 32P-ATP by Hotspot assay relative to control; values are per cent of control
Sequence of ALK tyrosine kinase receptor (Homo sapiens) (Q9UM73 19-1620 limits assumed): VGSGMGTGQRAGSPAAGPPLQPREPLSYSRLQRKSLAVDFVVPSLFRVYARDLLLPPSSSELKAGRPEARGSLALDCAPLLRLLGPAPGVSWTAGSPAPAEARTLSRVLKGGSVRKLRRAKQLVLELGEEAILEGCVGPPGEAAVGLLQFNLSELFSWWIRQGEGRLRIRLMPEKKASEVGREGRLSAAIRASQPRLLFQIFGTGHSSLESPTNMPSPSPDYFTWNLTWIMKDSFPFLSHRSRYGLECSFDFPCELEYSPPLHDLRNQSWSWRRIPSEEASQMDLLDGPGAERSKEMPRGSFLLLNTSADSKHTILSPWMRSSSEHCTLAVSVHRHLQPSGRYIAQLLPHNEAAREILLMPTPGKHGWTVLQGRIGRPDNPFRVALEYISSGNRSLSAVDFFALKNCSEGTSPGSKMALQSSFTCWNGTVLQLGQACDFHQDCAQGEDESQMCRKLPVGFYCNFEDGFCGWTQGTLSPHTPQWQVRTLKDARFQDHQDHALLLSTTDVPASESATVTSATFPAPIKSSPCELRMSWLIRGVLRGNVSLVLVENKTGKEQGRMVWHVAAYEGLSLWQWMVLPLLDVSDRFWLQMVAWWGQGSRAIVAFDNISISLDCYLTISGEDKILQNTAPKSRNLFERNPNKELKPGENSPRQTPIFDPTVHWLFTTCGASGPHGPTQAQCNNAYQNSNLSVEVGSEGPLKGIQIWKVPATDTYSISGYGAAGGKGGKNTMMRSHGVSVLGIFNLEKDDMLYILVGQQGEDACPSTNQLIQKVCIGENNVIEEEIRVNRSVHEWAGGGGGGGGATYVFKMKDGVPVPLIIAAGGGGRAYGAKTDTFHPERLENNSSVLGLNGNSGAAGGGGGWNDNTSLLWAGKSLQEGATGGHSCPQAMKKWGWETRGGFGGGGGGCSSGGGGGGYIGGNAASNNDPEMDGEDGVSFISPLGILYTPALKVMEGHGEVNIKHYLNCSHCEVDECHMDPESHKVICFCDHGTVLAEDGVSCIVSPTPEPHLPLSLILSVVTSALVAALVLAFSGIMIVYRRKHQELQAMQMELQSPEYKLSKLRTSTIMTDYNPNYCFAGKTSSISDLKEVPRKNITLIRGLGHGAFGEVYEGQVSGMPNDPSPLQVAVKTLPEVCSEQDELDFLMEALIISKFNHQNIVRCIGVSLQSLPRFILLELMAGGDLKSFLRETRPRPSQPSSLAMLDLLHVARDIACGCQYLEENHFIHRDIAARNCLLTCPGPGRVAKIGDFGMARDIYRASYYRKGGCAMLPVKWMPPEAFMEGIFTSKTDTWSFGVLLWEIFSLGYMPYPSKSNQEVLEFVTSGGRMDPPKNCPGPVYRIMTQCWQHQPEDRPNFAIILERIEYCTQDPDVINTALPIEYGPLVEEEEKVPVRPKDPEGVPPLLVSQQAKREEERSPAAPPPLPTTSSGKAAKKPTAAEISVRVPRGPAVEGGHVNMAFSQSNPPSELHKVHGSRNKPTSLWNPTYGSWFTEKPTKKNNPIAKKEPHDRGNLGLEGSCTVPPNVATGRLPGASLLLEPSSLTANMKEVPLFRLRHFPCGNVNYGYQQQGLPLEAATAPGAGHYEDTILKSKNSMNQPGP

[4] = biological target: Cyclin-dependent kinase 1/cyclin B1 (Homo sapiens) (UniProt P06493+P14635); experiment: Inhibition of human CDK1/cyclin B using RB Protein as substrate at 1 uM in presence of 32P-ATP by Hotspot assay relative to control; values are per cent of control
Sequence of Cyclin-dependent kinase 1/cyclin B1 (Homo sapiens) (P06493 whole entry, looked up): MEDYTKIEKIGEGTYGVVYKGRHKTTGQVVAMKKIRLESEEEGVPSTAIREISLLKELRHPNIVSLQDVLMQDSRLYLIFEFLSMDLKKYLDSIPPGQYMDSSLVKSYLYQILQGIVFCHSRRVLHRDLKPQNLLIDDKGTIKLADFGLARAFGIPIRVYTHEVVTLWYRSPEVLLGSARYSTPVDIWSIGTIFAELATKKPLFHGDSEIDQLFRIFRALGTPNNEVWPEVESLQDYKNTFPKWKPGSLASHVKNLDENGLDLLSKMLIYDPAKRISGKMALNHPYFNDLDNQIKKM
Sequence of Cyclin-dependent kinase 1/cyclin B1 (Homo sapiens) (P14635 whole entry, looked up): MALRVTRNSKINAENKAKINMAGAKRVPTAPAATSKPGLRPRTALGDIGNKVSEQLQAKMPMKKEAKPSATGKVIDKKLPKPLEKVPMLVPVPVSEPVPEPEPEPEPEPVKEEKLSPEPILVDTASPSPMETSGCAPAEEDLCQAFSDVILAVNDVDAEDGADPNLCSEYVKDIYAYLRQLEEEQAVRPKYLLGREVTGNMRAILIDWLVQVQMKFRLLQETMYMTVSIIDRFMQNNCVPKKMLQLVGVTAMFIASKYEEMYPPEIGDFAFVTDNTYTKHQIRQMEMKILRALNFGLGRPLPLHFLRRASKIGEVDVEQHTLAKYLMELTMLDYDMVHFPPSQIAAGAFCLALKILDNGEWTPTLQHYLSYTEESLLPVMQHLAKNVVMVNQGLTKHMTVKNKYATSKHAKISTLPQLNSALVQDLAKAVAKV

[5] = biological target: T1, Myotonin-protein kinase (Homo sapiens) (UniProt Q09013); experiment: Inhibition of human DMPK using KKRNRRLSVA as substrate at 1 uM in presence of 32P-ATP by Hotspot assay relative to control; values are per cent of control
T1 sequence (whole entry): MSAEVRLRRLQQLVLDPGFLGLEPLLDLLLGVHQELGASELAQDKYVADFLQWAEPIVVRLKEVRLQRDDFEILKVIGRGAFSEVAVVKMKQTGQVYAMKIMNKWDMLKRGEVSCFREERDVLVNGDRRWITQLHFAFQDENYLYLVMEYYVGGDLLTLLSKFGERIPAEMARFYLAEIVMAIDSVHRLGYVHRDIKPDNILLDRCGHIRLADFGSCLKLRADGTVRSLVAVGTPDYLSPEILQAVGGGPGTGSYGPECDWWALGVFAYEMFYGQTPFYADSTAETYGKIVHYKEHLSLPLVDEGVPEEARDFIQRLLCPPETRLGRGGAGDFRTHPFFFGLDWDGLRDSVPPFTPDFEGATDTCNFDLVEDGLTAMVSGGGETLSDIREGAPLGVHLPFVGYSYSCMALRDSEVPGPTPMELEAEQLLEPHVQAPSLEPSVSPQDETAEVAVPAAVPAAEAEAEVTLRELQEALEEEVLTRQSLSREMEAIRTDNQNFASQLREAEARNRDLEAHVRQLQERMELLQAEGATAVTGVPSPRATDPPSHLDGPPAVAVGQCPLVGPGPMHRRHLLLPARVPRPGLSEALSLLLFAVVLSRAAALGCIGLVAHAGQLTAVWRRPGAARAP

[6] = biological target: T2, Mitogen-activated protein kinase kinase kinase 5 (Homo sapiens) (UniProt Q99683); experiment: Inhibition of human ASK1/MAP3K5 using myelin basic protein as substrate at 1 uM in presence of 32P-ATP by Hotspot assay relative to control; values are per cent of control
T2 sequence (whole entry): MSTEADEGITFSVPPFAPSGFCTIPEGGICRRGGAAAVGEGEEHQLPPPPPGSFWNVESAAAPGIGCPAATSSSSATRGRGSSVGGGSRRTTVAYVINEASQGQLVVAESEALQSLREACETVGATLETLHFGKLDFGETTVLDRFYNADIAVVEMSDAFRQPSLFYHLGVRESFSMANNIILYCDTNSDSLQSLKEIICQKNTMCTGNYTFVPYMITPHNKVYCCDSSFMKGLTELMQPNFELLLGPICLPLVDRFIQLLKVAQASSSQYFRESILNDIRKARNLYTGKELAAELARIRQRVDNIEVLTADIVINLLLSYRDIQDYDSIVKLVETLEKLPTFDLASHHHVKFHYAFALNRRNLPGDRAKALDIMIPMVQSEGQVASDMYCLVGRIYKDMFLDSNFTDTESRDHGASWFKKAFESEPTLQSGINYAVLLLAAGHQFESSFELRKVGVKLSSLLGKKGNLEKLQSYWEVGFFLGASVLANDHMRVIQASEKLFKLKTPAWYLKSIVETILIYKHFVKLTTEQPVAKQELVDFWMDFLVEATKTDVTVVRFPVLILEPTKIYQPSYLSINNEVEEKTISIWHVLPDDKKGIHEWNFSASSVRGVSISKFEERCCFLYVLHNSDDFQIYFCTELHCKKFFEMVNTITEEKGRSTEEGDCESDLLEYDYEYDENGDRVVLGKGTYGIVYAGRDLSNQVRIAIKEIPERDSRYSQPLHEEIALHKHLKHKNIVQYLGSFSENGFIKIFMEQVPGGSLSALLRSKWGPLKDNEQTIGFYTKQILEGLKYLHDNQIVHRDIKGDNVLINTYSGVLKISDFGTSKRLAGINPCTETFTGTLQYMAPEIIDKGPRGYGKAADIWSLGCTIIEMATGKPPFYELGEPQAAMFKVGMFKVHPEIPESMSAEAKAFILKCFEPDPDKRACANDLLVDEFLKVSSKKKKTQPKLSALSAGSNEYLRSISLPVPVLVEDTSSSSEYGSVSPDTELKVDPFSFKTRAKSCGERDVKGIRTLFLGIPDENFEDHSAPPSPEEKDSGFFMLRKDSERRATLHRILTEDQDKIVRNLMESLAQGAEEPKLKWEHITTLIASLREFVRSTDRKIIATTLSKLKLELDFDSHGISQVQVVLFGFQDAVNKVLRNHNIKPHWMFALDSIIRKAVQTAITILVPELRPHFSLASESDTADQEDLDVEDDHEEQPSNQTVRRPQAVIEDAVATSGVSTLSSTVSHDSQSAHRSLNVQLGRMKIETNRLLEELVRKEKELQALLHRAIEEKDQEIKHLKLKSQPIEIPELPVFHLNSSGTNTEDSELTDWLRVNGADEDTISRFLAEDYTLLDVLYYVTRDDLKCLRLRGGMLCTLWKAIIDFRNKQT

[7] = biological target: Ephrin type-A receptor 7 (Homo sapiens) (UniProt Q15375); experiment: Inhibition of human EPHA7 using poly[Glu:Tyr] (4:1) as substrate at 1 uM in presence of 32P-ATP by Hotspot assay relative to control; values are per cent of control
[8] = biological target: Tyrosine-protein kinase CSK (Homo sapiens) (UniProt P41240); experiment: Inhibition of human CSK using poly[Glu:Tyr] (4:1) as substrate at 1 uM in presence of 32P-ATP by Hotspot assay relative to control; values are per cent of control
Sequence of Tyrosine-protein kinase CSK (Homo sapiens) (P41240 2-450 limits assumed): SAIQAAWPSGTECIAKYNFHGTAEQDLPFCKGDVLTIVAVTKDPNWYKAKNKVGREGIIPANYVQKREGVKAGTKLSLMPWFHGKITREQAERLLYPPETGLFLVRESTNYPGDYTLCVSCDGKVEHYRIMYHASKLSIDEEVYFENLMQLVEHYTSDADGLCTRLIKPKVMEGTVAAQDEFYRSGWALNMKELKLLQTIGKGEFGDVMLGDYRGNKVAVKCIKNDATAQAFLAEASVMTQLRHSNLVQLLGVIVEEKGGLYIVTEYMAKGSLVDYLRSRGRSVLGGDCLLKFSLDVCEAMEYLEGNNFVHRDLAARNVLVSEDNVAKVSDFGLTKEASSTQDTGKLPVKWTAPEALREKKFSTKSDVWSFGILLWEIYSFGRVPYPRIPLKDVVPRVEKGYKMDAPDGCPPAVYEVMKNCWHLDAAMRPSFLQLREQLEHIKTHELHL

[9] = biological target: TGF-beta receptor type-2 (Homo sapiens) (UniProt P37173); experiment: Inhibition of human TGFBR2 using myelin basic protein as substrate at 1 uM in presence of 32P-ATP by Hotspot assay relative to control; values are per cent of control
Sequence of TGF-beta receptor type-2 (Homo sapiens) (P37173 whole entry): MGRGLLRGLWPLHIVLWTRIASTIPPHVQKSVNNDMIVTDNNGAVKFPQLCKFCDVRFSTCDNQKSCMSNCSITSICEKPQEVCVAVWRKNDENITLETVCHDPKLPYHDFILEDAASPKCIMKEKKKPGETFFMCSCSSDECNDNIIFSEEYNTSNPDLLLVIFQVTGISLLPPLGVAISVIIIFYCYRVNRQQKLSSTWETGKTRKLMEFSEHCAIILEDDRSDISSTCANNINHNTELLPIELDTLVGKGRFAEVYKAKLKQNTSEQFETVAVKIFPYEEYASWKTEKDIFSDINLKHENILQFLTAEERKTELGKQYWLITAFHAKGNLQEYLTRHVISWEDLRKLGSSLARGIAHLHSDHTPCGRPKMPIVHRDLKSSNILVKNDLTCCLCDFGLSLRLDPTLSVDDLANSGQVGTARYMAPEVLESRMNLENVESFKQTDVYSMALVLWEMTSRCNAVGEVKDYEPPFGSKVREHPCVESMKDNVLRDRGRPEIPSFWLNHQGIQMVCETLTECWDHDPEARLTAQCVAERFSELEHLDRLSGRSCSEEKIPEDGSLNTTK

Sequence of Serine/threonine-protein kinase 33 (Homo sapiens) (Q9BYT3 whole entry, looked up): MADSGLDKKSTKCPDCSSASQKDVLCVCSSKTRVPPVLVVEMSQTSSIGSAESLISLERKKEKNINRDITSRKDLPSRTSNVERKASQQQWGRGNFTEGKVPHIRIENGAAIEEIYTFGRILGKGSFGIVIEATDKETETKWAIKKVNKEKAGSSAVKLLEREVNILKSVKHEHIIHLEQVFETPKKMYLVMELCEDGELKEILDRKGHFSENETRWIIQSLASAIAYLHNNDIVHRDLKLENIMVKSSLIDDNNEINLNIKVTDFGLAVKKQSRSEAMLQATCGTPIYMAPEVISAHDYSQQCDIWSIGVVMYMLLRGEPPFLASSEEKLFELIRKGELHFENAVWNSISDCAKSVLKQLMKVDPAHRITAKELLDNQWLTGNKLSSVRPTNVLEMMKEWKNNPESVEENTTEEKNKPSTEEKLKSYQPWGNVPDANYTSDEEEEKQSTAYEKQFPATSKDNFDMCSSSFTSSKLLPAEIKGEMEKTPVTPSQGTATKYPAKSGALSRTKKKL

Compound | residual activity [1] [%] | residual activity [2] [%] | residual activity [3] [%] | residual activity [4] [%] | residual activity [5] [%] | residual activity [6] [%] | residual activity [7] [%] | residual activity [8] [%] | residual activity [9] [%]
Cc1cc(-c2cnc(N)c3c(-c4ccc5scnc5c4)csc23)n(C)n1 | 99 | 99.5 | 96.6 | 95 | 92.1 | 102 | 101 | 69.5 | 35.2
CC(C)S(=O)(=O)c1ccc2nccc(Nc3ccc4scnc4c3)c2c1 | 103 | 94.2 | 90.8 | 101 | 103 | 97.6 | 90.8 | 58.8 | 101
CNC(=O)c1ccc2c(c1)ncn2-c1ccc(CC(=O)OC(C)(C)C)cc1 | 102 | 99.9 | 101 | 98.9 | 107 | 96.7 | 87.8 | 78.6 | 73.3
